Measured values as given in US8088401B2, “Composite material comprising a porous semiconductor impregnated with an organic substance” (Psimedica Limited, priority 2003, dated 2012).
Counter-ions that a name gives are not always drawn.

What was measured:
[1] = Gravimetric loading of porous silicon p+ membrane with beneficial organic substance; type: physicochemical; conditions: for pore volume available occupied by the drug, given as value/drug density / w/w loading (weight gain after drug loading and washing): mesoporous p+ silicon membrane, porosity 63%; for w/w loading (weight gain after drug loading and washing): melt, heated solution or rotary evaporation loading; for maximum w/w loading capacity: 63% porosity silicon matrix, from the density; for pore volume available occupied by the drug: liquid applied directly, 70° C. for 20 minutes
Protocol: The porous membranes were prepared and loaded with beneficial substance according to the following general method:—
A 3 inch diameter p+ wafer (5-15 milli ohm cm) was made mesoporous in a 50:50 by volume mixture of 40 wt % HF and ethanol by anodisation at 35 mA/cm^2 for 90 minutes. […] The membrane was then broken into flakes of weight in the range 10-60 mg for gravimetric and EDX studies of beneficial substance incorporation.
Loading was performed on two similar porous silicon (p+) membranes.
The pore volume available in the porous silicon membrane that can be occupied by the drug is calculated as follows: […]

[2] = aqueous environment; cited from earlier work
[3] = Mortality and survival of tumour-bearing nude mice in the chlorambucil study; type: in vivo; conditions: for mortality rate: without porous silicon
Protocol: The following protocol was adopted:— • 1. Culture of human cells and implantation of the tumour cells as solid tumours in nude mice: The carcinoma cell-line was cultured in RPMI and Ham's F-12 media respectively with 10% fetal calf serum in a CO2 incubator and subcultured every two to three days until growing to a number enough for implantation in animals. The cells were then implanted as solid tumors in nude mice]. The cells were collected in HBSS (balanced salt solution). One hundred microliters of cell suspension in HBSS (5×10^6 cells) was injected subcutaneously into right gluteal region of nude mice (female, 6 to 9 week old nude mice with average body weight of 25 g, housed in pathogen-free conditions) using a 25-gauge needle. • 2. Animals groups: Animals were randomly grouped into control 1 (injected with peanut oil), control 2 (injected with porous silicon without drug), free chlorambucil (drug injected without porous silicon directly into tumour or injected via intraperitoneal route) and chlorambucil impregnated porous silicon groups. Each group included 16 to 20 animals. • 3. Injection of chlorambucil impregnated porous silicon in transplanted tumours: On day 14 after implantation of tumours (diameter of the tumour about 1 cm), the chlorambucil impregnated formulation was applied to the centre of the tumours. • 4. Tumour volumetrics: The sizes of implanted tumours in nude mice was estimated every 3 days. The largest and smallest diameters were measured by a vernier caliper and tumour volumes estimated according the formula: V=1/2 ab^2, where a and b are largest and smallest tumour diameters respectively, and V is the tumour volume in cm^3.
The effects of intra-tumoural administered chlorambucil loaded porous silicon on the growth of the tumour was studied and compared with control and systemic therapy groups. The body weight of the animals was estimated by subtracting the tumour volume (cm3) from the total body weight (g) every 3 days. The survival time of each experimental animal was recorded.

[4] = HPLC analysis of drug extracted after incorporation into porous silicon; type: physicochemical
Protocol: Following incorporation into the membrane, chlorambucil was extracted and subjected to HPLC analysis. A known amount of the incorporated Chlorambucil/porous silicon (typically 10-15 mg, dependent on the level of incorporation) was placed into a volumetric flask and made up to a volume with 100 ml of ethanol, shaken and sonicated for 30 minutes at 30° C. From this stock solution 25 ml were transferred by pipette to a 100 ml volumetric flask to give the sample solution. Prior to analysis by HPLC the sample was filter through a 0.45 micron filter.
The chromatographic conditions used for this analysis were:—

[5] = 55% porous silicon, thin oxidised layers; cited from earlier work

pore volume available occupied by the drug, given as value/drug density [1]	w/w loading (weight gain after drug loading and washing) [1] [% w/w]	Compound	further results
74.07 /drug density %	35.07	CN(C)CCC=C1c2ccccc2CCc2ccccc21 [Amitriptyline HCl]	–
78.53 /drug density %	37.54	CS(=O)(=O)OCCCCOS(C)(=O)=O [Busulfan]	–
55.62 /drug density %	42.57	CCCCCCCCCCCC(=O)O [Lauric Acid]	–
64 /drug density %	32.93	c1ccc([C@H]2CN3CCSC3=N2)cc1 [Levamisole HCl]	–
–	19.81	CC(=O)O[C@]1(C(C)=O)CC[C@H]2[C@@H]3C[C@H](C)C4=CC(=O)CC[C@]4(C)[C@H]3CC[C@@]21C [Medroxyprogesteron Acetate]	–
–	16.71	CC(=O)O[C@H]1C(=O)[C@@]2(C)[C@H]([C@H](OC(=O)c3ccccc3)[C@]3(O)C[C@H](OC(=O)[C@H](O)[C@@H](NC(=O)c4ccccc4)c4ccccc4)C(C)=C1C3(C)C)[C@]1(OC(C)=O)CO[C@@H]1C[C@@H]2O [Paclitaxel]	degradation after incorporation into and release from porous silicon (HPLC) [4]: without significant degradation
–	35.33	CCN(CC)CCOC(=O)c1ccc(N)cc1 [Procaine]	loading w/v ([1]; EtOH:dH2O 1:1 solution, 110° C., 25 minutes): 71.38 % w/v
–	40.67	CC(C)Cc1ccc(C(C)C(=O)O)cc1 (stereo not drawn) [S-(+)-Ibuprofen]	–
–	37	Cc1c(C)c2c(c(C)c1O)CC[C@@](C)(CCC[C@H](C)CCC[C@H](C)CCCC(C)C)O2 [Vitamin E, α-tocopherol]	maximum w/w loading capacity [1]: 41%; pore volume available occupied by the drug [1]: 88%
–	36	Vitamin K	maximum w/w loading capacity [1]: 42%; pore volume available occupied by the drug [1]: 80%
–	–	albumin	volume percentage adsorbed [5]: 10.7%

Compound	pore volume available occupied by the drug, given as value/drug density [1]	w/w loading (weight gain after drug loading and washing) [1] [% w/w]	further results
O=C(O)CCCc1ccc(N(CCCl)CCCl)cc1 [Chlorambucil]	88.40 /drug density %	39.19	apparent activation energy for thermal degradation (Ea) [2]: 24.4 kcal/mol; mortality rate ([3]; 720 ug): 50%; mortality rate ([3]; 1500 ug (2×LD50), intratumour): 90%; LD50 ([3]; nude mice, dose per animal): 720 µg; degradation after incorporation into and release from porous silicon (HPLC) [4]: without significant degradation
O=P1(N(CCCl)CCCl)NCCCO1 (centres unmarked) [Cyclophosohamide]	104 /drug density %	44.4	–
CC1=CC(=O)c2c(O)cccc2C1=O [Plumbagin]	98.50 /drug density %	34.68	–
